Assay results as given in patent publication US20240369551A1 (priority 2021, published 2024).
Values joined by “and” are separate entries in the source; they are usually repeats but may differ in a detail not shown here. Identical values can stand only once. Like-named read-outs stand apart in the source and are kept apart here. Ends that are not written are not given here.

Legend:
[1] = tested on: COVID19 anti-S2 IgG; assay: UV-vis aggregation test of peptide-AuNP conjugates (Example 2); assay type: binding; conditions: streptavidin-biotin conjugates, peptide 10 or 1 μM
Procedure: Citrate-coated AuNP was functionalized with streptavidin (SA) by mixing 500 nM of SA with 8 nM of citrate-coated AuNP. The mixture was incubated at room temperature for 30 min, and unbound SA was removed from the SA-coated AuNPs (SA-AuNPs) with centrifugation at 12,500 RCF for 15 mins. Then, biotinylated S20P2 or S21P2 peptide (10 or 1 μM) was added to conjugate to the SA-AuNPs. Unreacted peptides were removed from the peptide-AuNP conjugates with centrifugation at 12500 RCF for 12 mins. The conjugates were reconstituted into ultrapure water for further tests with IgG.
For IgG test, 20 μL of COVID19 anti-S2 IgG (SINO Biological) was added to 80 μL of peptide-AuNP conjugates in a 96-well plate. UV-vis spectrum before and after IgG addition are recorded (FIGS. 3A and B). […] For both conjugates, a higher degree of aggregation is observed when lower peptide concentration (1 μM) is used, presumably due to the diluted coating density around AuNP which poses less steric hindrance for binding with IgG.

[2] = tested on: HCoV-HKU1 IgGs; assay: Immunoassay with epitope-tagged AuNPs, selectivity screen; assay type: binding; conditions: 100 nM antibodies
Procedure: (§1) SARS-CoV-2 IgG antibodies and control antibodies were first diluted in 1×PBS. In a typical experiment, 5 μL of prediluted antibody solution was added to 45 μL of epitope-functionalized AuNPs. The mixture was spun briefly for 20 s at 6000 rpm using a portable microcentrifuge (Profuge 6K) and incubated for another 30 min at room temperature. Absorbance spectra of the supernatant were recorded using a microplate reader (Synergy 2; BioTek). Sensor response was calculated as the relative change in absorbance at 534 nm. For a time-profile study, the absorbance spectra were recorded at 10 min intervals. For a salt-induced aggregation test, solutions of AuNPs were treated with 1×PBS and the absorbance spectra were recorded after a 30 min incubation. For a selectivity screen against other human coronaviruses, the concentration of antibodies was 100 nM. To investigate the sensitivity of AuNPs in human plasma, SARS-CoV-2 IgG rabbit antibodies were spiked into PBS containing various concentrations of human plasma, such that the final plasma concentration after mixing with AuNPs was 0%, 10%, and 20% (v/v).

[3] = tested on: MERS IgGs; assay type: binding
[4] = tested on: SARS-CoV-2 IgG antibodies; assay: Immunoassay with epitope-tagged AuNPs (aggregation, relative change in absorbance at 534 nm); assay type: binding, rabbit; conditions: for limit of detection (LOD): single epitope-functionalized AuNPs (streptavidin-biotin), respective SARS-CoV-2 IgG; for decrease of normalized plasmon peak intensity (534 nm): anti-SARS-CoV-2 S1 IgG; for LOD: detection of anti-SARS-CoV-2 S1 IgG; for nanosensor response: 100 nM anti-S1 IgG
Procedure: as §1

[5] = tested on: SARS-CoV-2 IgG; assay: Fluorescence polarization (FP) of FITC-labeled epitopes with IgG; assay type: binding, rabbit; conditions: 100 nM FITC-labeled epitope, 200 nM IgG, 15 min, 1×PBS
[6] = biological target: epitope-specific SARS-CoV-2 IgGs; assay: SPR spectroscopy (Biacore T200): IgG binding to immobilized biotinylated peptide epitopes; design: species or system rabbit; conditions: for binding affinities (estimated Kd, order of magnitude): Example 9, kinetic fitting, streptavidin treated CM5 chip; for apparent Kd: kinetic analysis, very slow dissociation, beyond the instrument sensitivity limit; for Kd: respective target IgG, 25° C.
[7] = tested on: COVID19 anti-S1 IgG; assay: UV-vis aggregation test of peptide-coated nanoparticles (Examples 1, 6, 7, 8); assay type: binding; conditions: for response to COVID-19 IgGs: single epitope thiol-AuNP conjugation with thiolyated spacer CALNN
[8] = tested on: normal human IgG; assay: Immunoassay with epitope-tagged AuNPs, control IgG; assay type: binding
Procedure: as §1

[9] = tested on: SARS-CoV IgG; assay type: binding
[10] = real-time kinetic analysis, 1:1 Langmuir model, read-out: Kd from kinetic analysis
[11] = steady-state analysis without dissociation step, read-out: Kd from steady-state analysis

Substance: S21P2-AuNPs: Streptavidin-coated gold nanoparticles functionalized with biotinylated S21P2 epitope (PSKPSKRSFIEDLLFNKV; also: biotinylated, bound to streptavidin-coated gold nanoparticles)
- aggregation of peptide-coated AuNPs [1]: significant aggregation
- sensor response [2]: minimal sensor response
- sensor response [3]: minimal sensor response
- limit of detection (LOD) [4]: 5.1 nM

Substance: TESNKKFLPFQQFGRDIA [S14P5]
- relative FP increase [5]: highest relative FP increase
- binding affinities (estimated Kd, order of magnitude) [6]: pM
- apparent Kd [6]: low pM range
- Kd [6, 10]: < 0.001 µM
- Kd [6, 11]: 0.111 ± 0.015 µM
- limit of detection (LOD) [4]: 4.1 nM
- response to COVID-19 IgGs [7]: resulted in nanoparticle aggregation

Substance: S14P5-AuNPs: Gold nanoparticles functionalized with S14P5; streptavidin-biotin in Example 10, thiol-gold with or without CALNN spacer in Examples 1 and 6 (TESNKKFLPFQQFGRDIA; also: conjugated to gold nanoparticles via streptavidin-biotin or thiol-gold, with or without CALNN spacer)
- sensor response [2]: minimal sensor response
- dose-dependent aggregation response (decrease in plasmon peak intensity) [8]: absent
- sensor response [3]: minimal sensor response
- dose-dependent aggregation response (decrease in plasmon peak intensity) [9]: absent
- normalized sensor response [9]: 11.4%
- normalized sensor response with SARS-CoV IgG relative to SARS-CoV-2 IgG (fold lower) ([9]; after 60 min): 6 fold
- decrease of normalized plasmon peak intensity (534 nm) ([4]; first 10 min): 40.2%
- decrease of normalized plasmon peak intensity (534 nm) ([4]; leveling off within 30 min): 67.3%
- LOD [4]: 4.1 nM
- limit of detection (LOD) [4]: 4.1 nM
- IgG concentration giving visible change in colour from red to purple ([7]; Example 1: thiol-conjugated S14P5 with CALNN blocking): ≥ 100 nM
- linear range ([7]; Example 1: thiol-conjugated S14P5 with CALNN blocking, absorbance ratio): 10 to 100 nM
- LOD ([7]; Example 1: thiol-conjugated S14P5 with CALNN blocking, absorbance ratio, 15 min): ~30 nM and 4.5 μg/ml
- binding / nanoparticle aggregation ([7]; thiol-AuNP conjugation without spacer, COVID-19 anti-S1 IgG (100 nM)): unable to bind to anti COVID-19 IgGs

Substance: NNAAIVLQLPQGTTLPKG [N4P5]
- relative FP increase [5]: comparably lower percentage of FP increase
- binding affinities (estimated Kd, order of magnitude) [6]: μM
- Kd [6, 10]: ~0.218 µM and 0.218 µM
- Kd [6, 11]: 1.61 ± 0.12 µM
- limit of detection (LOD) [4]: 25.8 nM

Substance: S14P5/S21P2-AuNPs: Streptavidin-coated gold nanoparticles functionalized with both biotinylated S14P5 and S21P2 epitopes (peptide 1 TESNKKFLPFQQFGRDIA; peptide 2 PSKPSKRSFIEDLLFNKV; also: biotinylated peptides on streptavidin-coated gold nanoparticle)
- recognition of anti-S1 and anti-S2 IgGs of SARS-CoV-2 ([4]; 50 nM of anti-S1 IgG or anti-S2 IgG (FIG. 23)): able to recognize both anti-S1 and anti-S2 IgGs
- nanosensor response ([4]; 5-fold diluted human plasma): 14.6%
- nanosensor response ([4]; 10-fold diluted human plasma): 22.8%
- nanosensor response ([4]; pure PBS): 78.2%
- LOD [4]: 3.2 nM

Substance: PSKPSKRSFIEDLLFNKV [S21P2]
- relative FP increase [5]: significant increase in FP values
- binding affinities (estimated Kd, order of magnitude) [6]: pM
- apparent Kd [6]: low pM range
- Kd [6, 10]: < 0.001 µM
- Kd [6, 11]: 0.125 ± 0.007 µM
- limit of detection (LOD) [4]: 5.1 nM
- response to COVID-19 IgGs [7]: resulted in nanoparticle aggregation

Substance: GIAVEQDKNTQEVFAQVK [S20P2]
- relative FP increase [5]: significant increase in FP values
- binding affinities (estimated Kd, order of magnitude) [6]: nM
- Kd [6, 10]: ~0.08 µM and 0.08 µM
- Kd [6, 11]: 0.51 ± 0.034 µM
- limit of detection (LOD) [4]: 15.4 nM
